Experimental data from patent US20240181111A1, “SYSTEMS AND METHODS FOR AIR SANITIZATION USING FORMULAS CONTAINING AN ORGANIC ACID” (The Clorox Company, priority 2022, published 2024).
Where “and” joins values, the source holds several entries; their conditions need not be identical. Identical values can stand only once. Like-named read-outs stand apart in the source and are kept apart here.

Columns and labels:
[1] = cited from earlier work
[2] = cited from earlier work; remark: listed apart in the source
[3] = Candidate screening for antimicrobial synergy with lactic acid
Protocol: In addition to tested organic acids, a number of glycols, alcohols, diols and other candidates were also screened, for pairing with the organic acid. Viable candidates may also have: 1) a vapor pressure characteristics as noted above; 2) be soluble in water; and/or 3) have an ECHA Inhalation Threshold for the General Population of greater than 10 mg/m^3.
As such, while glycols may optionally be present, in an embodiment, the present formulations may be void, or substantially void of such glycol components (particularly propylene glycol and glycols including an ether group). The same may be said for various other candidate materials noted in Table 2.

[4] = cited from earlier work; remark: listed apart in the source
[5] = Acid dissociation of lactic acid; type: physicochemical; conditions: at a pH of 2.2
From the text: In another aspect, the pH of the antimicrobial formulation is kept low. A low pH can be important for lactic acid or other acids to achieve air sanitization efficacy. […].

[6] = Table 2 candidates for pairing with the organic acid
[7] = Table 1 organic acids, standard conditions (e.g., 20° C. and 1 atmosphere)
[8] = organic acids, long term inhalation

Question: What does the source list for CCC(O)CO (stereo not shown) [1,2-butanediol]?
Answer: ECHA Inhalation Threshold for General Population ([1]; Table 2 candidates): No hazard identified; Vapor Pressure [2, 6]: 10 Pa

Question: Which “antimicrobial synergy with lactic acid” value [3] does the source give for CCCCC(O)CO (stereo not shown) [1,2-hexanediol (HDO), 1,2-hexanediol] here?
Answer: The value was “synergy with lactic acid”.

Question: For CC(O)CCO (stereo not shown) [1,3-butanediol], which “Vapor Pressure” value [2, 6] is on record?
Answer: The value was 26 Pa.

Question: With CCCCCCCCCCCCO [1-dodecanol] as the compound, how does the “ECHA Inhalation Threshold for General Population” value (“ECHA Inhalation Threshold” below) ([1]; Table 2 candidates) read?
Answer: The value was 77 mg/m^3.

Question: With O=C(O)CCO [3-hydroxypropionic acid] as the compound, how does the “Solubility in water (g of compound in 100 g of water at ~20° C.)” value (shortened to “Solubility in water”) [4] read?
Answer: Its value is “Very soluble^1”.

Question: Which results are given for CC(=O)O [acetic acid]?
Answer: ECHA local effects DNEL ([1]; local effects): 25 mg/m^3)^1; Vapor Pressure [2, 7]: 2080^3 Pa

Question: Which “Vapor Pressure” value [2, 7] does the source give for O=C(O)CCCCC(=O)O [adipic acid] here?
Answer: Its value is 9.70^1 Pa.

Question: Which “ECHA Inhalation Threshold” value [1, 8] does the source give for O=C(O)c1ccccc1 [benzoic acid] here?
Answer: The value was 1.5^3 mg/m^3.

Question: What about the “Vapor Pressure” value [2, 7] of the same compound?
Answer: The value was 0.11^1 Pa.

Question: Which “ECHA Inhalation Threshold” value [1, 8] does the source give for O=C(O)CO [glycolic acid] here?
Answer: Its value is 2.6 mg/m^3 and 2.6^3 mg/m^3.

Question: For CCCCCCC(=O)O [heptanoic acid], which “Solubility in water” value [4] is on record?
Answer: The value was 0.2^2 g of compound in 100 g of water.

Question: For CCCCCC(=O)O [hexanoic acid], which “ECHA Inhalation Threshold” value [1, 8] is on record?
Answer: The value was 4.35^3 mg/m^3.

Question: What about the “Vapor Pressure” value [2, 7] of the same compound?
Answer: The value was 5.80^1 Pa.

Question: Which “fraction of lactic acid in the acidic form” value [5] does the source give for CC(O)C(=O)O (stereo not shown) [lactic acid] here?
Answer: The value was “at least 95%”.

Question: Which “ECHA Inhalation Threshold” value [1, 8] does the source give for O=C(O)CC(=O)O [malonic acid] here?
Answer: The value was 1.04^3 mg/m^3.

Question: With CC(=O)C(=O)O [pyruvic acid] as the compound, how does the “Solubility in water” value [4] read?
Answer: The value was 100^1 g of compound in 100 g of water.

Question: What about the solubility ([4]; standard conditions (room temperature and 1 atm)) of the same compound?
Answer: Its solubility is “about 100 g/100 g water”.
